Data on five molecules can be found in patent US11464726B2, “1,4: 3,6 dianhydrohexitols for moisturising the skin” (ROQUETTE FRERES, priority 2017, dated 2022).

The assay deals with surface layers of the skin (superficial stratum corneum). Put plainly: Moisturizing efficiency of gel evaluated by corneometry. Type of assay: in vivo, human. To be noted: for mean hydration value (Corneometer capacitance): gel 6% by weight + 1% carbomer, around 2 mg/cm^2, inner forearm, ten volunteers; for Mean variations in % of hydration: (T…h-T0)/T0*100, gel 6% by weight. How it is done:
For this, these polyols were incorporated into a cosmetic preparation for topical use in gel form. […] The placebo consists only of 1% by weight of gelling carbomer in water. The moisturizing efficiency of each of the preparations for topical use was evaluated by corneometry. Corneometry is a scientifically recognized method for measuring the hydration of the surface layers of the skin. It is based on the determination of the capacitance of the superficial stratum corneum. The study was carried out with ten healthy volunteers aged from 18 to 65 years old. The moisturizing efficiency of each of the five formulae was evaluated 1 hour, 2 hours and 4 hours after its application in the laboratory on the inner face of the forearm. […] For each formula, an amount of around 2 mg/cm^2 was applied to an area of 3×3 cm, in non-occlusive epicutaneous mode. In addition to the zones treated with the five formulae, two additional zones were evaluated: one treated with a placebo and the other without treatment for the duration of the study. The measurements were carried out with a Corneometer® CM285 included in a Multiprobe Adapter System MPA® (Courage-Khazaka GmbH, Germany). The instrument determines the capacitance of the epidermis, which is proportional to the water content thereof, at a depth of around 15 μm. This method is based on the difference between the electrical permittivity of the water which is 81 and that of other substances (<7). The probe of the Corneometer (surface area of 49 mm^2) is positioned perpendicular to the test area which was delimited beforehand with a pencil. The measurement of the capacitance lasts 1 second. Each measurement is carried out twice and the average of the two measurements is noted. The instrument gives the values in arbitrary units ranging from 0 to 130, with an error margin of ±3%. Each volunteer rested for around 1 minute in an air-conditioned room before each measurement with the Corneometer® in order to avoid abnormal results due to excessive perspiration or stress. Table 2 below reports the mean hydration values expressed in arbitrary units (AU).

Structures are written as SMILES.

Regarding `C[N+](C)(C)CC(=O)O` [Betaine], the “mean hydration value (Corneometer capacitance)” value (shortened to “mean hydration value”) reads like this: (T0, before application) 43.39 AU; (T1 h after application) 55.61 AU; (T2 h after application) 54.30 AU; (T4 h after application) 50.74 AU. For the same molecule, the “Mean variations in % of hydration” value is 28.2% (T1 h vs T0), 25.1% (T2 h vs T0) and 16.9% (T4 h vs T0).

As for `OCC(O)CO` [Glycerol], the “mean hydration value” value (T0, before application) is recorded as 42.03 AU; the “mean hydration value” value (T1 h after application) amounted to 57.05 AU; the “mean hydration value” value (T2 h after application) was found to be 56.15 AU; the “mean hydration value” value (T4 h after application) is recorded as 56.57 AU. Moreover, the “Mean variations in % of hydration” value by setting is: (T1 h vs T0) 35.7%; (T2 h vs T0) 33.6%; (T4 h vs T0) 34.6%.

Consider `O[C@@H]1CO[C@H]2[C@@H]1OC[C@@H]2O` [Isosorbide, 1,4:3,6-dianhydrosorbitol], for which the “mean hydration value” value turned out to be 46.54 AU (T0, before application); 56.60 AU (T1 h after application); 52.88 AU (T2 h after application); 52.50 AU (T4 h after application). Besides, the “Mean variations in % of hydration” value is, setting by setting: (T1 h vs T0) 21.6%; (T2 h vs T0) 13.6%; (T4 h vs T0) 12.8%. Where the note is “in words, short-term hydration and maintenance over time (T4h vs T0)”, the “moisturizing power given to the gel” value is recorded as “satisfactory moisturizing power, comparable to that of betaine”.

Take `OC[C@@H](O)[C@@H](O)[C@H](O)[C@@H](O)CO` [Sorbitol]: the “mean hydration value” value amounted to 48.60 AU (T0, before application); 54.16 AU (T1 h after application); 49.11 AU (T2 h after application); 46.91 AU (T4 h after application). In addition, the “Mean variations in % of hydration” value reads like this: (T1 h vs T0) 11.4%; (T2 h vs T0) 1.0%; (T4 h vs T0) −3.5%.

For `OC[C@@H](O)[C@H](O)[C@@H](O)CO` [Xylitol], the “mean hydration value” value was 45.94 AU (T0, before application); 55.37 AU (T1 h after application); 52.68 AU (T2 h after application); 45.28 AU (T4 h after application). The “Mean variations in % of hydration” value is, setting by setting: (T1 h vs T0) 20.5%; (T2 h vs T0) 14.7%; (T4 h vs T0) −1.4%.
